Results published in US10556860B2, “hTERT modulators and methods of use” (Arizona Board of Regents on Behalf of the University of …, priority 2015, dated 2020).

Columns and labels:
[1] = test system: G124/125A mutant hTERT 5-12 fragment; test: Single-molecule laser tweezer unfolding, G124/125A mutant; type: biochemical, human; conditions: 2 μM, 10 mM Tris, 100 mM KCl, pH 7.4; single- and double-stranded template
Description: Single-molecule tweezer. Preparation of the DNA construct. The DNA construct that contains the single-stranded hTERT 5-12 fragment was prepared by sandwiching the target sequence between two double-stranded DNA handles. Five deoxythymidines were added at both ends of the hTERT 5-12 fragment to reduce the interference from the double-stranded DNA handles on the target sequence. Briefly, the 2690-base-pair double-stranded DNA handle was prepared through restriction enzyme digestion of the pEGFP vector (Clontech, Mountain View, Calif.). In the first step, the vector was digested by Sad and Eagl restriction enzymes, followed by purification with agarose gel. The EagI end of the DNA fragment was labeled with digoxigenin using terminal deoxynucleotidyl transferase. […]
Single-molecule force-ramp assay. […] After this, the two beads were moved apart to increase the tension on the DNA tether with a loading rate of 5.5 pN/s, and the force-extension (F-X) curves were recorded using the LabVIEW program (National Instruments Corp., Austin, Tex.).
The F-X curves were filtered by Savitzky-Golay function with a 10 ms time constant in the MATLAB program (The Math Works, Natick, Mass.). […] The change-in-contour length (ΔL) was calculated based on the Δx through the worm-like chain model (equation 1). […]

[2] = test system: G138/139A 5-12 G-quadruplex; test: CD kinetics, temperature-jump, G138/139A; type: biochemical, human; conditions: 2 equiv
Description: FIGS. 10A and 10B are a set of graphs showing (A) comparison of kinetics of initial folding rate of the WT 5-12 G-quadruplex with GTC365 and BRACO-19 by the temperature-jump method. (B) Enhanced initial folding rate of the 5-12 G-quadruplexes carrying different hTERT mutants by GTC365. The time-course CD signal of preheated oligo with compound or DMSO in a buffer containing 10 mM Tris-HCl (pH 7.5) and 5 mM KCl was monitored at 262 nm and 25° C.
For the kinetics analysis using the temperature-jump method, theoligo in a buffer containing 10 mM Tris-HCl (pH 7.5) was heated forl min at 95° C., and then a mixture of KCl and compound was addedand incubated for 1 min. Meanwhile, the CD cuvette was also heatedat 95° C. As soon as the sample in the CD cuvette at the hightemperature was placed in the CD chamber, a time-dependent CDsignal at 262 nm was recorded immediately. The initial folding ratewas determined by one-phase association curve fitting (eq 1) of thekinetics curve using GraphPad Prism 5: Y=Y0+(Plateau−Y0)*(1−e^−kx) (1) where Y is the CD signal at any time point x, Y0 is the Y value whentime (x) is zero, plateau is the Y value at infinite time, and k is the rateconstant.
To evaluate the comparative effects of GTC365 relative to BRACO-19 on the cooperative folding process, we carried out two different experiments. […]

N=C(N)NCCCS(=O)(=O)Nc1ccc(Nc2c3ccccc3nc3cc([N+](=O)[O-])ccc23)cc1 [GTC365]
full-length G-rich species (>36 nt/bp) population [1]: recovered
effect on initial folding rate [2]: insignificant
